Here are results for eight compounds from patent US8722642B2, “Multiantivirus compound, composition and method for treatment of virus diseases” (Biocell Laboratories, priority 2011, dated 2014).

In assay [1] the test system is hemagglutinin of influenza virus AFM 1/47 (H1N1). The experiment in a line: Hemagglutination reaction: influence on hemagglutinin activity of influenza virus. It is filed as biochemical.
The test system of assay [2] is influenza virus A/FM/1/47(H1N1), adapted for lungs of white mice. The assay can be described thus: Model of influenza pneumonia in mice. Type of assay: in vivo. The settings on record: Tamiflu, dose not given, intra-abdominal.

As for `OC[C@@H](O)[C@@H](O)[C@H](O)[C@H](O)CO` [Mannitol], the “Difference in the virus titers” value in assay [1] (0.5 mg/ml, temperature of reaction 30 ° C.) was determined as 0 log2x. Moreover, the “Virus titer in the experiment” value in assay [1] (0.5 mg/ml, temperature of reaction 30 ° C., control virus 8) is 8 log2x.

For the compound `CCOC(=O)C1=C[C@@H](OC(CC)CC)[C@H](NC(C)=O)[C@@H](N)C1` [Tamiflu, Oseltamivir], in assay [2] (preventive regimen), the “% died” value is 30 ± 1.0%, the “CP (Coefficient of protection)” value was found to be 5.0 and the “IE (Index of effectiveness)” value was found to be 70.0. In addition, in assay [2] (treatment regimen), the “% died” value came out at 20.0 ± 0.5%, the “CP (Coefficient of protection)” value was 10.0 and the “IE (Index of effectiveness)” value is reported as 80.0.

For the compound Poliguanylic acid [Poly G], in assay [1] (concentration 10 mg/ml), the “Difference in virus titers” value worked out at 0 lg2^X. Also, the “Virus titer in the experiment” value in assay [1] (concentration 10 mg/ml, […]) was 9 lg2^X.

As for Polyadenylic acid [Poly A], in assay [1] (concentration 10 mg/ml), the “Difference in virus titers” value came to 2 lg2^X. Further, the “Virus titer in the experiment” value in assay [1] (concentration 10 mg/ml, […]) came to 7 lg2^X.

Take Polycytydilic acid [Poly C]: in assay [1] (concentration 10 mg/ml), the “Difference in virus titers” value turned out to be 2 lg2^X. Moreover, the “Virus titer in the experiment” value in assay [1] (concentration 10 mg/ml, […]) turned out to be 7 lg2^X.

As to “Polyinosinic:polycytidylic acid [PolyIC]”, the “Difference in virus titers” value in assay [1] (concentration 10 mg/ml) is given as 3 lg2^X. The “Virus titer in the experiment” value in assay [1] (concentration 10 mg/ml, […]) worked out at 9 lg2^X.

With Polyinosylic acid [Poly I], the “Difference in virus titers” value in assay [1] (concentration 10 mg/ml) worked out at 3 lg2^X. In assay [1] (concentration 10 mg/ml, […]), the “Virus titer in the experiment” value came to 6 lg2^X.

Turning to Polyurydylic acid [Poly U], in assay [1] (concentration 10 mg/ml), the “Difference in virus titers” value was determined as 2 lg2^X. Moreover, the “Virus titer in the experiment” value in assay [1] (concentration 10 mg/ml, […]) stood at 9 lg2^X.
